Data on 2 compounds can be found in paper PMC6149861, “Identification, In Vitro Testing and Molecular Docking Studies of Microginins’ Mechanism of Angiotensin-Converting Enzyme Inhibition” (Molecules : A Journal of Synthetic Chemistry and Natural …, 2017).

For the assay, the system named is angiotensin-converting enzyme (ACE; EC. 3.4.15.1). Format: biochemical. As to conditions: for ACE inhibitory rate: HHL substrate, pH 8.3, 37 °C, HPLC-DAD 226 nm, mean ± SEM of three repeats. The procedure:
The ACE inhibiting capability was evaluated according to the method described by Wang et al. ([14], which employs the hippuryl-histidilleucina tripeptide (Hip-His-Leu or HHL) as the substrate and evaluates the formation of hippuric acid (HA) by liquid chromatography (HPLC-DAD). Briefly, the commercial enzyme ACE and the substrate HHL (Sigma-Aldrich®) were dissolved in borate buffer (NaOH and boric acid) 100 mmol·L^−1, pH 8.3, supplemented with 300 mmol·L^−1 NaCl; their concentrations were 0.2 U/mL and 5 mmol·L^−1, respectively. Meanwhile, HA and captopril (standard ACE inhibitor) were dissolved in distilled water. The enzyme was pre-incubated in the presence or absence of inhibitor (isolated microginins or captopril) for […] at 37 °C, and the reaction was initiated by addition of substrate. After 30 min, the reaction was stopped by adding 250 μL of hydrochloric acid, and the sample was directly injected into the chromatographic system. […] After 5 min, the substrate was added to start the reaction.
The inhibitory rate was calculated, according to Wang et al., by I% = (A − B)/A × 100%; where A is the peak area of HA without adding ACE inhibitors; and B is the peak area of HA with the addition of ACE inhibitors. All data presented are the average of three repeats; the data are presented as means ± SEM.

Where two headings read alike, the source gives them in different places.

With `C[C@H](CS)C(=O)N1CCC[C@H]1C(=O)O` [captopril, reference compound], where the note is “captopril 0.8 µM”, the ACE inhibitory rate is given as 88.25 ± 1.19%.
Turning to “MeAhda-L-Val-L-Leu-L-HTyr-L-Tyr [MG 770]”, where the note is “IC50-based comparison with other microginins”, the “ACE inhibition (in words)” value is recorded as “efficiently inhibits ACE, with activity comparable to that of other previously described microginins”. The ACE inhibitory rate (microginin 800 µg·mL^−1) was determined as 92.15 ± 2.76%.
